Tests used:
strain E1 = experiment: Potentiation of gentamicin by mefloquine (MBC, MIC); format: cell-based
Text: Several aminoglycoside (gentamicin) potentiator target genes identified in Example 34 are ATP synthases.

E. Coli RecA protein = molecular target: T1, E. Coli RecA protein (Escherichia coli, UniProt P0A7G6); experiment: RecA ATPase activity, in vitro luciferase assay; format: biochemical; details: luciferase assay screen
T1 construct: purchased New England Biolabs
Method: The assay measures the amount of ATPase (adenosine triphosphate (ATP)-adenosine diphosphate (ADP)) activity catalyzed by E. Coli RecA protein. In the assay, recA is incubated in reaction buffer with DNA, ATP and compounds of interest for a measured amount of time. The quantity of ATP remaining after the RecA reaction is quantitated using a subsequent luciferase assay. […] Details of the assay are provided below.
Materials. Kingase glo plus, adenosine triphosphate (ATP), Adenosine 5′-O-(3-thiotriphosphate), and 384 well plates, white were obtained from Fisher; and M13 mp18 Single-stranded DNA, RecA Protein and T4 Polynucleotide Kinase Reaction Buffer=PNK were obtained from New England Biolabs. PNK contained 70 mM Tris-CL pH 7.5, 10 mM MgCl2 and 5 mM DTT.
Assay Procedure. Final reaction mixture contains: 0.5 μL of M13 single stranded DNA (250 μg/mL); 1.0 μL of 10×PHK buffer; 0.25 μL of RecA (2 mg/mL); 0.25 μL of 1 mM ATP; 0.25 μL of test compound in DMSO; and […] of H2O.
Test compounds are incubated at room temperature in the presence of RecA protein and DNA prior to addition of ATP. This can be achieved by the preparation of two mixes, as indicated below. Desirably, both a no-DNA and a DNA/DMSO-only (i.e., no test compound) control were included.
The following steps are then performed: (1) Add 7.75 μL of mix 1 to the well of a 384 well plate; (2) Add 0.5 μL of the compound of interest; (3) Incubate at room temperature for 5 minutes; (4) Add 2.5 μL of the ATP mix. Incubate at room temperature for 30 minutes; (5) Add 12.5 μL of Promega Kinase glo plus; (6) Incubate at room temperature for 10 minutes or more; and (7) Measure luminescence of the reaction.
Tested compounds were obtained from Boston University (1205 compounds from CMLD diversity library, available from Dr. Scott Schauss), IndoFine (66 compounds based on flavone structure), ChemdiV (48 compounds known to be ATPase inhibitors and 720 compounds structurally related to CB101 (described, for example, in U.S. Ser. No. 60/662,038), and Asinex. Five (5) tested compounds were bisfiavones and 28 were predicted, based on structural modeling (see, for example, Example 31) to dock with Rec A. Many of the compounds are lipophilic, natural-product-like compounds. Others are flavones, bisflavones, flavonoids, coumarins, and/or heterocyclic compounds.
Percent inhibition is calculated according to the following equation: […]

[1] = system: S. aureus strain S3 (ISP 794); experiment: Survival assay, potentiation of ciprofloxacin, S. aureus strain S3; format: cell-based; details: 1 μg/mL ciprofloxacin + 25 μg/mL hinokiflavone, 16 hour time point
Text: Cell-based Survival Assay.

S. aureus cells = experiment: Mutation/resistance assay, resistance to ciprofloxacin; format: cell-based; details: 4×MIC ciprofloxacin with (+) or without (−) 25 μg/mL hinokiflavone
Method: This assay measures the rate at which mutant cells arise in the presence of an antibiotic agent. Cells are grown in the presence of antibiotic agent at a concentration above (generally well above, e.g., 4× or 8×) its MIC, and further in the presence or absence of a test agent (that may inhibit or enhance mutation).
Every 24 hours, an aliquot is removed from the culture and is diluted so that the antibiotic agent is no longer present at a concentration above its MIC (e.g., so that the antibiotic agent is present at 0.5×MIC or less). These aliquoted samples are then assayed to determine whether they can grow in the presence of the antibiotic agent. Specifically, when growth is observed in the presence of antibiotic agent at a concentration that is 4×MIC, then resistance is said to have developed. Test compounds can therefore be assayed to assess whether or not they can reduce the incidence of resistance (e.g., by inhibiting mutation).
These aliquoted samples were then assayed to determine whether they can grow in the presence of ciprofloxacin. […]

E. coli MG1655 = experiment: Hydroxyl radical formation (HPF dye, flow cytometry) in E. coli; format: cell-based; details: for hydroxyl radical formation: E. coli, 250 ng/mL norfloxacin, 5 μg/mL ampicillin, 5 μg/mL kanamycin, bacteriostatic drugs, 3 hours after addition
Method: (§1) Growth Conditions. In the experiments, the growth and survival of untreated exponential phase E. coli, or S. aureus, were compared to cultured treated with antibiotics at the above concentrations. E. coli cultures were treated with norfloxacin, kanamycin, ampicillin, rifamycin SV, chloramphenical, tetracycline, erythromycin, or spectinomycin, where appropriate, S. aureus cultures were treated with norfloxacin, vancomycin or chloramphenical, where appropriate.
Hydroxyl radical and DNA damage sensor experiments using the flow cytometer. To monitor the occurrence of DNA damage, the engineered DNA damage sensor was used, which responds to auto-cleavage of LexA by activating expression of gfpmut3b. All the drug treatments and the no-drug controls were collected with both the kanamycin- and ampicillin-resistant version of the plasmid, with the exception of the ampicillin treatment (kanamycin plasmid only) and the kanamycin treatment (ampicillin plasmid only). All data were collected using a Becton Dickinson FACSCalibur flow cytometer (Becton Dickinson, San Jose, Calif.) with a 488-nm argon laser and a 515- to 545-nm emission filter (FL1) at low flow rate. The following PMT voltage settings were used: E00 (FSC), 360 (SSC) and 700 (FL1). To detect hydroxyl radical formation, the fluorescent reporter dye, 3′-(p-hydroxyphenyl) fluorescein (HPF, Invitrogen, Carlsbad, Calif.) was used at a concentration of 5 μM (1:1000) dilution), which is oxidized by hydroxyl radicals with high specificity. The following PMT voltage settings were used: E00 (FSC), 360 (SSC) and 825 (FL 1). Calibrite beads (Becton Dickinson) were used for instrument calibration.
Flow data were processed and analyzed with MATLAB (MathWorks, Natick, Mass.) to construct figures. At least 50,000 cells were collected for each sample. In all experiments, cells were grown as described above. Samples were taken immediately before addition of drug (time zero), then every hour for 3 hours. At each timepoint, approximately […] were collected, washed once and resuspended in filtered 1×PBS, pH 7.2 (Fisher Scientific), and fluorescence was measured on the flow cytometer.
In the present study, the Applicants chose to investigate whether hydroxyl radical formation also contributes to antibiotic-induced cell death in bacteria. Using the dye hydroxyphenyl fluorescein, HPF, which is oxidized by hydroxyl radicals with high specificity, hydroxyl radical formation was first observed over a range of hydrogen peroxide concentrations known to induce hydroxyl radicals through the reduction of hydrogen peroxide by ferrous iron. In this manner, it was possible to establish the scale of hydroxyl radical formation detectable using this dye via flow cytometry.

wild-type E. coli = format: cell-based; details: norfloxacin, ampicillin or kanamycin treatment plus 2,2′-dipyridyl (500 μM)
Method: FIG. 36 is a set of 3 graphs showing the effect of iron chelation, hydroxyl radical quenching of iron-sulfur synthesis on the […] efficiency of bactericidal antibiotics. a,c,e, Log change in colony forming units per mL (CFU/mL, mean+/−standard deviation). Effect of addition of 500 μM 2,2′-dipyridyl or 150 mM thiourea to wildtype E. coli, and on an iron-sulfur cluster synthesis mutant, ΔiscS, on bactericidal drug efficacy and hydroxyl radical formation following exposure to a, 250 ng/mL norfloxacin (Nor), c, 5 μg/mL ampicillin (Amp), or e, 5 μg/mL kanamycin (Kan).
as §1
Application of iron chelators is an established means of blocking Fenton reaction-mediated hydroxyl radical formation by sequestering unbound iron. […]

E. coli H+ATPase = E. coli H+ATPase (Escherichia coli, UniProt P0AB98+P68699); details: cited from earlier work
[2] = system: SOS response (LexA auto-cleavage) in E. coli; experiment: SOS induction, LexA-controlled GFP DNA damage sensor; format: cell-based; details: 5 μg/mL Amp, 5 μg/mL Kan, 25 ng/mL Nor; 3 hours after addition
Method: FIG. 37 is a set of two graphs showing SOS induction in E. coli by bactericidal antibiotics. Activation of the SOS response was monitored using an engineered sensor construct that employs the LexA repressor for control of Green Fluorescent Protein (GFP) expression. Shown are representative GFP histogram measurements taken 3 hours after addition of a, bactericidal antibiotics (5 μg/mL Amp, 5 μg/mL Kan, 25 ng/mL Nor). b, Log change in CFU/mL of ΔrecA E. coli following exposure to 5 μg/mL Kanamycin (open diamonds), 25 ng/mL Norfloxacin (open triangles), and 5 μg/mL Ampicillin (open circles). For comparison, CFU/mL are also shown for widltype E. coli exposed to 5 μg/mL Kanamycin (diamonds), 25 ng/mL Norfloxacin (triangles), and 5 μg/mL Ampicillin (circles), as well as a lower concentration of norfloxacin in these experiments to highlight the significant increase in killing in a recA knockout.
DNA damage sensor construction. The DNA sensor construct with ampicillin resistance was described previously (D. J. Dwyer et al., “Superoxide and hydroxyl radicals contribute to gyrase inhibitor-mediated cell death in E. coli”, 2007 accepted by Mol. Syst. Biol., which is incorporated herein by reference in its entirety).
Hydroxyl radical and DNA damage sensor experiments using the flow cytometer. […]
Hydroxyl radical are extremely toxic, and will readily damage membrane lipids, proteins and DNA. […]

wildtype E. coli = experiment: NAD+/NADH extraction and NAD cycling assay; format: cell-based; details: bacteriostatic drug
Text: NAD+/NADH extraction and NAD cycling assay. Protocols for dinucleotide extraction and the cycling assay were based on protocols by Leonardo et al. (M. R. Leonardo et al., J. Bacteriol., 1996, 178: 6013-6018).
Using a modified version (M. R. Leonardo et al., J. Bacteriol., 1996, 178: 6013-6018;) of the NAD^+ cycling assay developed by Bernofsky and Swan (C. Bernofsky et al., Anal. Biochem., 1973, 53: 452-458), the present Applicants monitored NAD^+ and NADH concentrations in wildtype E. coli following treatment with the bactericidal drugs norfloxacin, ampicillin and kanamycin, as well as the bacteriostatic drug spectinomycin. For all three bactericidal drugs, a >5 fold increase in the NAD^+/NADH ratio was observed 0.5 hours after drug addition. This ratio returned to untreated levels by 1 hour. The increase in the NAD^+/NADH ratio was predominantly due to a large relative drop in NADH accompanied by a modest surge in NAD^+. This spike was not observed in an untreated culture, where the ratio of NAD^+/NADH remained tightly bounded. More importantly, treatment with the bacteriostatic drug spectinomycin had no effect on the NAD^+/NADH ratio relative to the untreated culture. A surge in NADH consumption upon exposure to bactericidal antibiotics should induce a burst in superoxide generation via the respiratory chain. […]

T1 sequence (P0A7G6 2-353): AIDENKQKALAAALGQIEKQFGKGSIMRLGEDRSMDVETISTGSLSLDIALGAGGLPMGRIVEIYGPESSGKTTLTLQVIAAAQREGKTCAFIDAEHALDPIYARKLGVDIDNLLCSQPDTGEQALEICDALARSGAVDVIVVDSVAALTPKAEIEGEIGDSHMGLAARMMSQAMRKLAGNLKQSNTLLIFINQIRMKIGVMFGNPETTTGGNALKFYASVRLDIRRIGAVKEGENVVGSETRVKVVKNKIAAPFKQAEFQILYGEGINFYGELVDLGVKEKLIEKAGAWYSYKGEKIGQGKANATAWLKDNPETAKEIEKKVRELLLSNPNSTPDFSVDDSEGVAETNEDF

Compound: OC(c1cc(C(F)(F)F)nc2c(C(F)(F)F)cccc12)C1CCCCN1 (centres unmarked) [Mefloquine]
- reduction of the MBC of gentamicin (strain E1; strain E1, Mefloquine 100 μg/mL): 6 fold
- reduction of the MIC of gentamicin (strain E1; strain E1, Mefloquine 500 μg/mL): 2 fold

Compound: O=c1cc(-c2ccc(Oc3c(O)cc4oc(-c5ccc(O)cc5)cc(=O)c4c3O)cc2)oc2cc(O)cc(O)c12 [hinokiflavone]
- IC50 (E. Coli RecA protein): < 1860 nM
- fewer CFUs in the presence of hinokiflavone as compared with its absence [1]: approximately 100 fold
- Number of Wells in which Growth Observed in Presence of Ciprofloxacin at 4x MIC (S. aureus cells; culture grown 0 days): 0
- Number of Wells in which Growth Observed in Presence of Ciprofloxacin at 4x MIC (S. aureus cells; culture grown 1 day): 0
- Number of Wells in which Growth Observed in Presence of Ciprofloxacin at 4x MIC (S. aureus cells; culture grown 5 days): 0
- Number of Wells in which Growth Observed in Presence of Ciprofloxacin at 4x MIC (S. aureus cells; culture grown 6 days): 0
- Number of Wells in which Growth Observed in Presence of Ciprofloxacin at 4x MIC (S. aureus cells; culture grown 7 days): 3
- Number of Wells in which Growth Observed in Presence of Ciprofloxacin at 4x MIC (S. aureus cells; culture grown 10 days): 4

Compound: c1ccc(-c2ccccn2)nc1 [2,2′-dipyridyl]
- hydroxyl radical formation in norfloxacin-treated cultures (E. coli MG1655; addition of 2,2′-dipyridyl (500 μM)): significantly reduced hydroxyl radical formation
- survival of bactericidal drug-treated E. coli following addition of iron chelator (wild-type E. coli): significant increase in survival

Compound: venturicidin
- inhibition of ATP-driven proton transport and ATP hydrolysis (E. coli H+ATPase): strongly inhibited

Compound: CC1(C)S[C@@H]2[C@H](NC(=O)[C@H](N)c3ccccc3)C(=O)N2[C@H]1C(=O)O [ampicillin]
- hydroxyl radical formation (E. coli MG1655): induce hydroxyl radical formation
- SOS activity (LexA-driven GFP expression) [2]: induced the SOS response

Compound: CN[C@@H]1[C@H](O)[C@H](NC)[C@H]2O[C@@]3(O)C(=O)C[C@@H](C)O[C@H]3O[C@@H]2[C@H]1O [spectinomycin]
- hydroxyl radical formation (E. coli MG1655): did not stimulate hydroxyl radical production
- effect on the NAD+/NADH ratio relative to the untreated culture (wildtype E. coli): no effect

From patent publication US20090264342A1, “COMPOSITIONS AND METHODS FOR ANTIBIOTIC POTENTIATION AND DRUG DISCOVERY” (priority 2006, published 2009)
